Test results taken from PubChem BioAssay (NCI).
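Assay format: 96-well plates, 48-hour exposure. GI50 = concentration required for 50% inhibition of growth. Definition used: TGI = concentration required for complete inhibition of growth.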

Assays:
Assay in all cases: NCI tumour cell line growth inhibition, 48 h
[1] = tested on: SF-539 CNS
[2] = tested on: HOP-62 NSCLC
[3] = tested on: A549 NSCLC
[4] = tested on: HCT-116 colon
[5] = tested on: SF-295 CNS
[6] = tested on: M19-MEL melanoma
[7] = tested on: U251 CNS
[8] = tested on: COLO 205 colon
[9] = tested on: HOP-92 NSCLC
[10] = tested on: SK-OV-3 ovarian
[11] = tested on: OVCAR-4 ovarian
[12] = tested on: CCRF-CEM leukemia
[13] = tested on: HL-60(TB) leukemia
[14] = tested on: HCT-15 colon
[15] = tested on: SNB-75 CNS
[16] = tested on: HCC-2998 colon
[17] = tested on: NCI-H226 lung
[18] = tested on: HOP-18 NSCLC
[19] = tested on: OVCAR-8 ovarian
[20] = tested on: MOLT-4 leukemia
[21] = tested on: IGROV1 ovarian
[22] = tested on: TK-10 renal
[23] = tested on: SK-MEL-28 melanoma
[24] = tested on: SR leukemia
[25] = tested on: OVCAR-3 ovarian
[26] = tested on: OVCAR-5 ovarian
[27] = tested on: LXFL 529 NSCLC
[28] = tested on: CAKI-1 renal
[29] = tested on: SK-MEL-5 melanoma
[30] = tested on: EKVX NSCLC
[31] = tested on: RPMI-8226 leukemia
[32] = tested on: M14 melanoma
[33] = tested on: DMS 114 small cell lung
[34] = tested on: SNB-78 CNS
[35] = tested on: KM12 colon
[36] = tested on: SN12C renal
[37] = tested on: ACHN renal
[38] = tested on: K-562 leukemia
[39] = tested on: KM20L2 colon
[40] = tested on: SF-268 CNS
[41] = tested on: UACC-62 melanoma
[42] = tested on: HT29 colon
[43] = tested on: A498 renal
[44] = tested on: DMS 273 small cell lung
[45] = tested on: SK-MEL-2 melanoma
[46] = tested on: UO-31 renal
[47] = tested on: NCI-H23 lung
[48] = tested on: MALME-3M melanoma
[49] = tested on: UACC-257 melanoma
[50] = tested on: SW-620 colon
[51] = tested on: HS 578T breast
[52] = tested on: MDA-MB-231 breast
[53] = tested on: NCI/ADR-RES ovarian
[54] = tested on: MCF7 breast
[55] = tested on: RXF 393 renal
[56] = tested on: 786-0 renal
[57] = tested on: MDA-MB-435
[58] = tested on: SNB-19 CNS
[59] = tested on: T-47D breast
[60] = tested on: DU-145 prostate
[61] = tested on: NCI-H522 lung
[62] = tested on: NCI-H460 lung
[63] = tested on: PC-3 prostate
[64] = tested on: BT-549 breast
[65] = tested on: MDA-N
[66] = tested on: LOX IMVI melanoma

## CC(=O)OCc1c(O)c2c(c(O)c1COC(C)=O)C(=O)C=CC2=O
[1]
  TGI: 35.7 µM
[2]
  TGI: 37.4 µM
[3]
  TGI: 35.9 µM
[4]
  TGI: 25.6 µM
[5]
  TGI: 27.4 µM
[6]
  TGI: 3.54 µM
[7]
  TGI: 28.5 µM
[8]
  TGI: 10.5 µM
[9]
  TGI: 7.24 µM
[10]
  TGI: 33.4 µM
[11]
  TGI: 22.7 µM
[12]
  TGI: 13.7 µM
[13]
  TGI: 46.7 µM
[14]
  TGI: 38.1 µM
[15]
  TGI: 33.2 µM
[16]
  TGI: 31.3 µM
[17]
  TGI: 32.5 µM
[18]
  TGI: 35.8 µM
[19]
  TGI: 30.2 µM
[20]
  TGI: 15.1 µM
[21]
  TGI: 30.5 µM
[22]
  TGI: 30 µM
[23]
  TGI: 22.8 µM
[24]
  TGI: > 100 µM
[25]
  TGI: 22.1 µM
[26]
  TGI: 30.9 µM
[27]
  TGI: 10.4 µM
[28]
  TGI: 21.8 µM
[29]
  TGI: 28.5 µM
[30]
  TGI: 32 µM
[31]
  TGI: > 100 µM
[32]
  TGI: 23.7 µM
[33]
  TGI: 25.4 µM
[34]
  TGI: 28 µM
[35]
  TGI: 28.2 µM
[36]
  TGI: 24.2 µM
[37]
  TGI: 21.8 µM
[38]
  TGI: > 100 µM
[39]
  TGI: 32.7 µM
[40]
  TGI: 30.8 µM
[41]
  TGI: 19.3 µM
[42]
  TGI: 31.6 µM
[43]
  TGI: 34.7 µM
[44]
  TGI: 34.3 µM
[45]
  TGI: 8.84 µM
[46]
  TGI: 29 µM
[47]
  TGI: 29 µM
[48]
  TGI: 20.5 µM
[49]
  TGI: 20.1 µM
[50]
  TGI: 14.3 µM

## C[C@]12CC[C@@H]3c4cc(I)c(O)cc4CC[C@H]3[C@@H]1CC[C@@H]2O
[1]
  GI50: 3.02 µM
  TGI: 7.76 µM
[51]
  TGI: 8.6 µM
[2]
  GI50: 4.22 µM
  TGI: 17.3 µM
[3]
  TGI: 25.1 µM
[4]
  GI50: 5.01 µM
  TGI: 16.5 µM
[5]
  TGI: 16.4 µM
[52]
  TGI: 25.3 µM
[53]
  TGI: > 78.2 µM
[7]
  TGI: 16.8 µM
[8]
  TGI: 36.2 µM
[54]
  TGI: 21.1 µM
[9]
  TGI: 26.3 µM
[10]
  TGI: 16.4 µM
[11]
  TGI: 39.3 µM
[12]
  TGI: 22.4 µM
[55]
  TGI: 20.1 µM
[13]
  TGI: > 33.4 µM
[14]
  TGI: 8.78 µM
[15]
  TGI: 12.4 µM
[16]
  TGI: 21 µM
[17]
  TGI: 33.4 µM
[56]
  TGI: 18.4 µM
[57]
  GI50: 2.11 µM
  TGI: 8.02 µM
[58]
  TGI: 34.9 µM
[59]
  TGI: 37.4 µM
[19]
  TGI: 40.2 µM
[20]
  TGI: > 54.8 µM
[60]
  GI50: 6.9 µM
  TGI: 23.8 µM
[21]
  TGI: 20.5 µM
[22]
  TGI: 27.6 µM
[23]
  TGI: 26.7 µM
[24]
  TGI: 13.7 µM
[25]
  TGI: 11.9 µM
[61]
  TGI: 17.8 µM
[26]
  TGI: 25.7 µM
[62]
  TGI: 16 µM
[28]
  TGI: 27 µM
[29]
  TGI: 12.2 µM
[30]
  TGI: 15.6 µM
[31]
  TGI: 37.7 µM
[32]
  TGI: 17.4 µM
[35]
  TGI: 13.2 µM
[63]
  TGI: > 56.4 µM
[64]
  TGI: 25.1 µM
[36]
  GI50: 6.66 µM
  TGI: 22.2 µM
[65]
  TGI: 5.77 µM
[37]
  TGI: 21 µM
[38]
  TGI: 24.2 µM
[40]
  TGI: 58.5 µM
[41]
  GI50: 3.63 µM
  TGI: 14.5 µM
[42]
  TGI: 34.3 µM
[43]
  TGI: 24.3 µM
[45]
  TGI: 13.7 µM
[46]
  TGI: 17.6 µM
[66]
  TGI: 25.8 µM
[47]
  TGI: 25.1 µM
[48]
  TGI: 28.3 µM
[49]
  TGI: 23.5 µM
[50]
  TGI: 13.5 µM

## CCC(=O)Nc1nc2c(ncn2C2OC(COC(=O)CC)C(OC(=O)CC)C2OC(=O)CC)c(=O)[nH]1 (stereo not given)
[1]
  TGI: > 100 µM
[2]
  TGI: > 100 µM
[3]
  TGI: > 100 µM
[4]
  TGI: > 100 µM
[5]
  TGI: > 100 µM
[6]
  TGI: > 100 µM
[7]
  TGI: > 100 µM
[10]
  TGI: > 100 µM
[11]
  TGI: > 100 µM
[55]
  TGI: > 100 µM
[13]
  TGI: > 100 µM
[14]
  TGI: > 100 µM
[15]
  TGI: > 100 µM
[16]
  TGI: > 100 µM
[17]
  TGI: > 100 µM
[56]
  TGI: > 100 µM
[58]
  TGI: > 100 µM
[19]
  TGI: > 100 µM
[20]
  TGI: > 100 µM
[21]
  TGI: > 100 µM
[23]
  TGI: > 100 µM
[24]
  TGI: > 100 µM
[25]
  TGI: > 100 µM
[61]
  TGI: > 100 µM
[26]
  TGI: > 100 µM
[62]
  TGI: > 100 µM
[27]
  TGI: > 100 µM
[28]
  TGI: > 100 µM
[29]
  TGI: > 100 µM
[30]
  TGI: > 100 µM
[31]
  TGI: > 100 µM
[32]
  TGI: > 100 µM
[34]
  TGI: > 100 µM
[35]
  TGI: > 100 µM
[36]
  TGI: > 100 µM
[37]
  TGI: > 100 µM
[38]
  TGI: > 100 µM
[39]
  TGI: > 100 µM
[40]
  TGI: > 100 µM
[41]
  TGI: > 100 µM
[42]
  TGI: > 100 µM
[43]
  TGI: > 100 µM
[44]
  TGI: > 100 µM
[45]
  TGI: > 100 µM
[46]
  TGI: > 100 µM
[66]
  TGI: > 100 µM
[48]
  TGI: > 100 µM
[49]
  TGI: > 100 µM
[50]
  TGI: > 100 µM
